Test results taken from PubChem BioAssay AID588407 (The Scripps Research Institute Molecular Screening Center, 2011).
Calls of active or inactive are those of the source. How the calls were made is not given here.

Each compound was assayed against Mu-type opioid receptor (Homo sapiens) + Delta-type opioid receptor (Homo sapiens) (UniProt P35372+P41143) (assay: OPRM1-OPRD1 heterodimer agonist potency – cell-based, luminescence, dose response (AID 588407;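 further: potency of agonists raising the heterodimer signal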)). Settings: cells, MOR-DOR heterodimerization.
Chain of Mu-type opioid receptor (Homo sapiens) + Delta-type opioid receptor (Homo sapiens) (P35372 whole entry, looked up): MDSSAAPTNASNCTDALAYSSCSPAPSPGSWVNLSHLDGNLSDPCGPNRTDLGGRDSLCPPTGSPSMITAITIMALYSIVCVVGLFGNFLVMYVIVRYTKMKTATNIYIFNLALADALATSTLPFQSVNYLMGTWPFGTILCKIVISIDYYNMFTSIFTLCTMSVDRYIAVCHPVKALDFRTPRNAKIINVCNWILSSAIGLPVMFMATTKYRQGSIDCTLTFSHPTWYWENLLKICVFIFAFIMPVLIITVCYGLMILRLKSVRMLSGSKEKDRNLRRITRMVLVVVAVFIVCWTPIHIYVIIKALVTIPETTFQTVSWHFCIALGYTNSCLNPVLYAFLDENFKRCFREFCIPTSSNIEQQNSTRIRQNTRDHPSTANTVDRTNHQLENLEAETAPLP
Chain of Mu-type opioid receptor (Homo sapiens) + Delta-type opioid receptor (Homo sapiens) (P41143 whole entry, looked up): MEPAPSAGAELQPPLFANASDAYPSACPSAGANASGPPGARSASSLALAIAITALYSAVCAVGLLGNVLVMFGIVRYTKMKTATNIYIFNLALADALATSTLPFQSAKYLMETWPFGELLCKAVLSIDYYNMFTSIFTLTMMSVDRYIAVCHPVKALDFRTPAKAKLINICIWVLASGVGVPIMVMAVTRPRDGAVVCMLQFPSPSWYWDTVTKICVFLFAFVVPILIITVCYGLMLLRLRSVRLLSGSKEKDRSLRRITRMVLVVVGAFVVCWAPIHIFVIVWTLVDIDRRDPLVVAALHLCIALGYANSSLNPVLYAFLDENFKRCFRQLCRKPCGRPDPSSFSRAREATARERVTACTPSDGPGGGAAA

Structure (SMILES)	EC50
COc1cc(NC(=O)c2cccc(C)c2)ccc1NC(=O)c1cc2ccccc2o1	inactive
CCOC(=O)C1(c2ccccc2)CCN(CCC(=O)Nc2cccc(Br)c2)CC1	8.78 µM
COc1cc2c3cc1Oc1cc(ccc1O)C[C@@H]1c4c(cc(OC)c(O)c4Oc4ccc(cc4)C[C@H]3N(C)CC2)CCN1C	inactive
Cc1ccccc1N(CC(=O)N/N=C/c1ccc(F)cc1)C(=O)c1ccccc1	inactive
CCNS(=O)(=O)c1ccc(NC(=O)Nc2ccc3c(c2)OCO3)cc1	9.34 µM
COc1ccc(C2CC(c3ccc(OC)cc3)n3nc(NC(=O)c4cccs4)nc3N2)cc1 (stereo unspecified)	inactive
COc1ccc(-c2csc(N(CCCN(C)C)C(=O)c3cccs3)n2)cc1	inactive
Cc1ccc2c(Cl)c(Cc3ccccc3)c(=S)[nH]c2n1	inactive
Cc1ccccc1Cn1c(O)c(N=NC(=S)Nc2ccccc2F)c2ccccc21	> 92.5 µM (inactive)
OC(CNCCC(c1ccccc1)c1ccccc1)COc1ccccc1 (stereo unspecified)	inactive
CN1C2C=C(N(CCc3c[nH]c4ccccc34)C(=O)c3ccc(Cl)cc3)CC1CC2 (stereo unspecified)	4.76 µM
COc1ccc(C(CNC(=O)c2ccc3c(c2)CCC3)N(C)C)cc1 (stereo unspecified)	0.0459 µM
CN(C)C(CNC(=S)Nc1ccccc1Cl)c1cccnc1 (stereo unspecified)	0.524 µM
CC(C)c1ccc(NC(=O)N(CCc2nc3ccccc3[nH]2)C2CCCC2)cc1	inactive
Cc1ccc(C2(O)CN(c3ccccc3C)C3=[N+]2CCS3)cc1 (stereo unspecified)	0.381 µM
COc1ccccc1CN1CCN(C(CC(C)C)c2nnnn2Cc2cccs2)CC1 (stereo unspecified)	inactive
O=C(OC1C2CCC1C1CN(CCc3ccccc3)CC12)c1ccccc1 (stereo unspecified)	inactive
CN1CCN(c2ccc(NC(=O)c3ccc(-c4ccc(Br)cc4)o3)cc2)CC1	1.92 µM
COc1ccc(-n2cc(CNCc3cccnc3)c(-c3cccc(F)c3)n2)cc1	inactive
Cc1cc(N2CCN(C)CC2)ccc1NC(=O)c1ccc(-c2ccc(Cl)cc2)o1	inactive
CN(C)C(CNC(=O)c1ccc(C(F)(F)F)cc1)c1ccco1 (stereo unspecified)	7.74 µM
CCN(CC)Cc1cc(Nc2c3ccccc3nc3c4ccccc4n(C)c23)cc(CN(CC)CC)c1O	1.78 µM
CCOC(=O)C1(Cc2ccccc2)CCN(Cc2cccn2-c2cccnc2)CC1	inactive
O=c1c2ccc(Cl)cc2[nH]c(=S)n1Cc1cccnc1	8.6 µM
Cc1cc(C)cc(C(=O)N(CCc2ccccc2)C2=CC3CCC(C2)N3C)c1 (stereo unspecified)	5.91 µM
CCN1CCN(S(=O)(=O)c2ccc(Cl)c(C(=O)N(CCc3ccccc3)Cc3ccccc3)c2)CC1	inactive

Structure (SMILES)	EC50
CCC(=O)OC(Cc1ccccc1)(c1ccccc1)[C@H](C)CN(C)C (stereo partly specified)	9.98 µM
OC(CN1CCN(C(c2ccccc2)c2ccccc2)CC1)c1ccccc1 (stereo unspecified)	inactive
Cc1ccc(C)c(-n2cc(CNC(C)Cn3cncn3)c(-c3ccccc3)n2)c1 (stereo unspecified)	inactive
CC1[C@H]2Cc3ccc(O)cc3[C@]1(C)CCN2C (stereo partly specified)	inactive
CN(C)C(CNC(=O)c1cccc(C(F)(F)F)c1)c1ccco1 (stereo unspecified)	> 92.4 µM (inactive)
COCCCn1c(N)c(-c2nc3ccccc3n2C)c2nc3ccccc3nc21	4.2 µM
CN(C(=O)Cc1ccc(Cl)c(Cl)c1)C(CN1CCCC1)c1cccc(OCC(=O)O)c1 (stereo unspecified)	inactive
Cc1nc(N2CCN(c3ccccn3)CC2)c2c(C)c(C(=O)N3CCN(c4ccc(F)cc4)CC3)sc2n1	2.2 µM
Cc1ccc2c(C)c(C(=O)N(Cc3cccs3)C3CCS(=O)(=O)C3)oc2c1 (stereo unspecified)	7.04 µM
CCOc1ccc(Nc2c3ccccc3nc3ccccc23)cc1	inactive
O=C(C=P(c1ccccc1)(c1ccccc1)c1ccccc1)c1ccccc1-c1ccccc1C(=O)C=P(c1ccccc1)(c1ccccc1)c1ccccc1	> 92.5 µM (inactive)
CCOC(=O)C1(CCOc2ccccc2)CCN(Cc2cccn2-c2cccnc2)CC1	1.67 µM
CCOC(=O)C1(CC2CC2)CCN(Cc2cnc(-c3ccccc3C)nc2)CC1	inactive
CN1C(CC(=O)Nc2ccc(Br)cc2)c2ccccc2CC1(C)C (stereo unspecified)	9.37 µM
COc1cccc(CC2(CO)CCCN(Cc3ccccc3-c3ccco3)C2)c1 (stereo unspecified)	8.88 µM
CN1CCN(c2ccc(NC(=O)c3ccc(-c4ccccc4F)o3)cc2)CC1	3.26 µM
CC(=O)NC(CC(=O)NCC(c1ccco1)N(C)C)c1ccccc1 (stereo unspecified)	1.06 µM
Cc1ccccc1N1CC(O)(c2ccccc2)[N+]2=C1SCC2 (stereo unspecified)	2.12 µM
CN(C)C(CNC(=O)C1CC(=O)N(Cc2ccccc2)C1)c1ccccc1 (stereo unspecified)	inactive
COc1ccc(C(CNc2ncnc3sc(C)c(C)c23)N(C)C)cc1 (stereo unspecified)	6.83 µM
Cc1c(CCOC(=O)c2ccccc2)sc[n+]1CC(=O)c1ccc(Br)cc1	inactive
Nc1nonc1C(=O)NCCNCc1c(OCc2ccccc2F)ccc2ccccc12	inactive
Cc1ccccc1OCC(O)Cn1c(=N)n(Cc2ccccc2)c2ccccc21 (stereo unspecified)	inactive
CN(C)C(CNC(=O)c1cc2ccccc2o1)c1ccco1 (stereo unspecified)	> 92.5 µM (inactive)
Cc1ccc2nc(SC(C(=O)Nc3ccc(F)cc3)c3ccccc3)[nH]c2c1 (stereo unspecified)	> 92.5 µM (inactive)
